Test results taken from ChEMBL document CHEMBL3877277, “Design, synthesis and biological evaluation of new phthalimide and saccharin derivatives with alicyclic amines targeting cholinesterases, beta-secretase and amyloid beta aggregation” (Eur J Med Chem, 2017).
pIC50: −log10 of the molar value. Calls of active or inactive are those of the source. No cut-off for these calls is given here.

Experiments:
[1] = biological target: Cholinesterase (Equus caballus) (UniProt P81908); assay: Inhibition of equine serum BuChE at 10 uM using butyrylthiocholine iodide as substrate preincubated for 5 mins followed by substrate addition measured after 5 mins by Ellman's method relative to control
[2] = biological target: Acetylcholinesterase (Electrophorus electricus) (UniProt O42275); assay: Inhibition of Electric eel AChE at 10 uM using acetylthiocholine iodide as substrate preincubated for 5 mins followed by substrate addition measured after 5 mins by Ellman's method relative to control
[3] = biological target: Amyloid-beta precursor protein (Homo sapiens) (UniProt P05067); assay: Inhibition of recombinant human HFIP-pretreated amyloid beta (1 to 42) self-induced aggregation at 10 uM after 24 hrs by thioflavin T-based fluorometric assay relative to control
Acetylcholinesterase [4] = biological target: T1, Acetylcholinesterase (Homo sapiens, UniProt P22303); assay: Inhibition of recombinant human AChE using acetylthiocholine iodide as substrate preincubated for 5 mins followed by substrate addition measured after 5 mins by Ellman's method
[5] = biological target: Acetylcholinesterase (Electrophorus electricus) (UniProt O42275); assay: Non-competitive inhibition of Electric eel AChE at 0.75 to 3.5 uM using varying levels of acetylthiocholine iodide as substrate preincubated for 5 mins followed by substrate addition measured after 5 mins by Lineweaver-Burk plot analysis
Acetylcholinesterase [6] = biological target: Acetylcholinesterase (Electrophorus electricus, UniProt O42275)
Description: Inhibition of Electric eel AChE using acetylthiocholine iodide as substrate preincubated for 5 mins followed by substrate addition measured after 5 mins by Ellman's method

in vitro = conditions: PAMPA
[7] = biological target: Acetylcholinesterase (Electrophorus electricus) (UniProt O42275); assay: Non-competitive inhibition of Electric eel AChE at 0.75 to 3.5 uM using varying levels of acetylthiocholine iodide as substrate preincubated for 5 mins followed by substrate addition measured after 5 mins by Cornish-Bowden plot analysis
[8] = PAMPA, 6 h, 100 µM
Acetylcholinesterase [9] = biological target: T1, Acetylcholinesterase; assay: Inhibition of recombinant human AChE using acetylthiocholine as substrate by Ellman's method

Acetylcholinesterase (Electrophorus electricus), sequence (O42275 24-633 limits assumed): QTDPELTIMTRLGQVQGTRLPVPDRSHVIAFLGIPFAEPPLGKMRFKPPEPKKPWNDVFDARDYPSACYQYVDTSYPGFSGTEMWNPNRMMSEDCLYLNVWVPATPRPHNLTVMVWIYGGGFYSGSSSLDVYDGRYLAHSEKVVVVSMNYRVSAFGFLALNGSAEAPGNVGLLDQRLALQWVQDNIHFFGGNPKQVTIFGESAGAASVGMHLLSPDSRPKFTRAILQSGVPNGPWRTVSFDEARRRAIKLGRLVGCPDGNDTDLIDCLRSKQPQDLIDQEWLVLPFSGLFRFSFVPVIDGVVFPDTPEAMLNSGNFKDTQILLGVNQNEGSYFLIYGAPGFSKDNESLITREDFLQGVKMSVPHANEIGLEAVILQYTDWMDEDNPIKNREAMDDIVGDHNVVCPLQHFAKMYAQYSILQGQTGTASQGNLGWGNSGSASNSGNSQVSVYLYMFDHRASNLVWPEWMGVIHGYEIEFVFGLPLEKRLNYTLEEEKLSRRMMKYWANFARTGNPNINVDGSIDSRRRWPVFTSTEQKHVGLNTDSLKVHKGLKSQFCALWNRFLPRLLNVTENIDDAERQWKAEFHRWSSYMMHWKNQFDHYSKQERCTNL
Acetylcholinesterase (Electrophorus electricus, UniProt O42275), sequence (O42275 whole entry): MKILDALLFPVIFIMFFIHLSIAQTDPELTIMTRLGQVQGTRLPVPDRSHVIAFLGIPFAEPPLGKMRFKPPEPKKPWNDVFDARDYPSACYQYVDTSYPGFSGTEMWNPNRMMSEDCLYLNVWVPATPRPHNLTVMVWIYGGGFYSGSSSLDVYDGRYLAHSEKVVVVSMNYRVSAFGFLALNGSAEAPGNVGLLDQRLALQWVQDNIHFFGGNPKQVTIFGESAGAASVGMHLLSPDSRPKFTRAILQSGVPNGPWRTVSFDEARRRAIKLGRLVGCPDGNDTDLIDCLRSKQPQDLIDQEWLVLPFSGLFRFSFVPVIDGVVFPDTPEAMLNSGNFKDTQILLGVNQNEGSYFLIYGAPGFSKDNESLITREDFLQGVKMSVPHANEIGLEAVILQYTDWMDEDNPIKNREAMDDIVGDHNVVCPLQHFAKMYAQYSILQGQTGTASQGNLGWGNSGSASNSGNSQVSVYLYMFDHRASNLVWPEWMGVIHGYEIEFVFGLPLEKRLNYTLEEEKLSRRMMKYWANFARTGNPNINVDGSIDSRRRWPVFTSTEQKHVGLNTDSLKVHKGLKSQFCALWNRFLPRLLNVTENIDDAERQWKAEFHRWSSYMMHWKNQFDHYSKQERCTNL
Cholinesterase (Equus caballus), sequence (P81908 whole entry): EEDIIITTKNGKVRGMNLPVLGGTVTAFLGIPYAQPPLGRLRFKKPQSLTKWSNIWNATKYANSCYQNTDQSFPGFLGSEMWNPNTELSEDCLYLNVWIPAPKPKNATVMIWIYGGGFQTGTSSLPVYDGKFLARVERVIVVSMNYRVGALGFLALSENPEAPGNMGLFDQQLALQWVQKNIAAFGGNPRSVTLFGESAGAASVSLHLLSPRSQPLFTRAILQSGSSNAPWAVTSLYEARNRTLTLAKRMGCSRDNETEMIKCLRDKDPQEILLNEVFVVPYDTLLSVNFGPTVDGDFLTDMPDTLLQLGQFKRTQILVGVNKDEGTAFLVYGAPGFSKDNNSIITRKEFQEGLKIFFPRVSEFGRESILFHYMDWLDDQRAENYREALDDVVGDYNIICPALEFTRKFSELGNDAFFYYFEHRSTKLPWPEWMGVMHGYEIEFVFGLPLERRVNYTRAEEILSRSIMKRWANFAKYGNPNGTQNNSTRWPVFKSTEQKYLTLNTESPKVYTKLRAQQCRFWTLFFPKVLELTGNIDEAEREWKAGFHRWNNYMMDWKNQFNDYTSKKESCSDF
T1 sequence (P22303 whole entry): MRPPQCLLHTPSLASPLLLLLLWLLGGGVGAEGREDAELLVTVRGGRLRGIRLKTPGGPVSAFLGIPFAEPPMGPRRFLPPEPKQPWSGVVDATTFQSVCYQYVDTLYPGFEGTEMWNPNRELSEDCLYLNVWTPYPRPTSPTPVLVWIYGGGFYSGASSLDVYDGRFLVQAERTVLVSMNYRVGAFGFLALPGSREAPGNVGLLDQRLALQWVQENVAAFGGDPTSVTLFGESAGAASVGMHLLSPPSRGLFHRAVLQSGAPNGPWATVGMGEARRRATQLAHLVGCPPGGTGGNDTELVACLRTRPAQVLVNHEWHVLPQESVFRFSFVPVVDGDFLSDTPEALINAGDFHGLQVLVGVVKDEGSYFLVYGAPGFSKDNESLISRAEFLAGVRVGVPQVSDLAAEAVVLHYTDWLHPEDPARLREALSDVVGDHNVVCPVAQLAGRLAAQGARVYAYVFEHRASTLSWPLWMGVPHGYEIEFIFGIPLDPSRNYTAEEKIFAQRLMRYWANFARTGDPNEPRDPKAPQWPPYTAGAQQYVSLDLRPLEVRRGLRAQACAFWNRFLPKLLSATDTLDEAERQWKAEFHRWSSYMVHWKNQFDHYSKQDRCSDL
Amyloid-beta precursor protein (Homo sapiens), sequence (P05067 whole entry): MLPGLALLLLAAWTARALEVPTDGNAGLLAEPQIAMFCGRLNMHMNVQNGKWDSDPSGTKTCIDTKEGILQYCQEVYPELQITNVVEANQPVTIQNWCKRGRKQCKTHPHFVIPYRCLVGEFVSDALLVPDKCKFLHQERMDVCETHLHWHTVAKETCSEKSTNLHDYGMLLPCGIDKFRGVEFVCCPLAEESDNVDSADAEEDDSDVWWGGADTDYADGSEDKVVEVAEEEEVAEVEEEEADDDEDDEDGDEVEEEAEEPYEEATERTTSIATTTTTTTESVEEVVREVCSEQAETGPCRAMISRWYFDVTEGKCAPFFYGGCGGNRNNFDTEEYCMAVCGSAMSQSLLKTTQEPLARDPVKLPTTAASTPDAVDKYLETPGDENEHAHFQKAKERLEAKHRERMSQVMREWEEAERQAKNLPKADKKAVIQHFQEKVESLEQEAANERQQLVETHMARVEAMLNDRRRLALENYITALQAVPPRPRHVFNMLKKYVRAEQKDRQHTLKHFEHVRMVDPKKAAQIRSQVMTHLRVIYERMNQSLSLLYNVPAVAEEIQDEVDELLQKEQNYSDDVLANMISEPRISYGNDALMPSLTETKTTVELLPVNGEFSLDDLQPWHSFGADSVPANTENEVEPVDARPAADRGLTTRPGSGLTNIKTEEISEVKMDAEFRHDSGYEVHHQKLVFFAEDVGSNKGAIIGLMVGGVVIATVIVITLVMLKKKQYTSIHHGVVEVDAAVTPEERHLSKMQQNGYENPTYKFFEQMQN

Compound: O=C1c2ccccc2C(=O)N1CCNC1CCN(Cc2ccccc2)C1 (stereo unspecified)
- inhibition [1]: 21.4%
- inhibition [2]: 25.7%

Compound: O=C1c2ccccc2S(=O)(=O)N1CCN1CCN(CCc2ccccc2F)CC1
- inhibition [1]: 11.3%
- inhibition [2]: < 10%

Compound: O=C1c2ccccc2C(=O)N1CCNC1CCCN(Cc2cc(F)cc(F)c2)C1 (stereo unspecified)
- inhibition [1]: 14.2%
- inhibition [2]: < 10%

Compound: O=C1c2ccccc2S(=O)(=O)N1CCCCCN1CCN(Cc2ccccc2)CC1
- inhibition [1]: 30.4%
- inhibition [2]: 43.1%

Compound: O=C1c2ccccc2S(=O)(=O)N1CCCCCNCc1ccccc1
- inhibition [3]: 22.2%
- pIC50 (Acetylcholinesterase [4]): 7.48

Compound: O=C1c2ccccc2C(=O)N1CCN1CCCN(Cc2cc(F)cc(F)c2)C1
- inhibition [1]: < 10%
- inhibition [2]: < 10%

Compound: O=C1c2ccccc2S(=O)(=O)N1CCN1CCN(Cc2ccccc2)CC1
- inhibition [1]: 22.1%
- inhibition [5]: Active
- pIC50 (Acetylcholinesterase [6]): 6.08
- inhibition [2]: > 50%
- Papp at 6 h, 100 µM (in vitro): 3.75 ×10⁻⁶ cm/s
- inhibition [7]: Active

Compound: O=C1c2ccccc2S(=O)(=O)N1CCCCCCN1CCN(Cc2ccccc2F)CC1
- inhibition [1]: 31.6%
- pIC50 (Acetylcholinesterase [6]): 5.07
- inhibition [2]: > 50%

Compound: O=C1c2ccccc2S(=O)(=O)N1CCCN1CCN(Cc2ccccc2F)CC1
- inhibition [1]: 12%
- inhibition [2]: < 10%

Compound: CCN(C)C(=O)Oc1cccc([C@H](C)N(C)C)c1 [RIVASTIGMINE]
- permeability [8]: 6.6 ×10⁻⁶ cm/s

Compound: O=C1c2ccccc2S(=O)(=O)N1CCN1CCN(Cc2ccc(F)cc2)CC1
- inhibition [1]: 47.5%
- pIC50 (Acetylcholinesterase [6]): 5.20
- inhibition [2]: > 50%
- Papp at 6 h, 100 µM (in vitro): 3.65 ×10⁻⁶ cm/s

Compound: O=C1c2ccccc2C(=O)N1CCN1CCCC(NCc2cc(F)cc(F)c2)C1 (stereo unspecified)
- inhibition [1]: 20%
- pIC50 (Acetylcholinesterase [6]): 5.19
- inhibition [2]: > 50%

Compound: O=C1c2ccccc2C(=O)N1CCN1CCCN(Cc2ccccc2F)C1
- inhibition [1]: 27.8%
- inhibition [2]: < 10%

Compound: O=C1c2ccccc2S(=O)(=O)N1CCN1CCN(Cc2cccc(F)c2)CC1
- inhibition [1]: < 10%
- pIC50 (Acetylcholinesterase [6]): 5.67
- inhibition [2]: > 50%

Compound: O=C1c2ccccc2S(=O)(=O)N1CCN1CCCC(NCc2cc(F)cc(F)c2)C1 (stereo unspecified)
- inhibition [1]: < 10%
- inhibition [2]: < 10%

Compound: O=C1c2ccccc2C(=O)N1CCN1CCN(Cc2cc(F)cc(F)c2)CC1
- inhibition [1]: 14.2%
- inhibition [2]: < 10%

Compound: O=C1c2ccccc2S(=O)(=O)N1CCCN1CCN(Cc2ccccc2)CC1
- inhibition [1]: 11.7%
- inhibition [2]: 34.2%

Compound: O=C1c2ccccc2S(=O)(=O)N1CCN1CCN(Cc2ccccc2F)CC1
- inhibition [1]: 16.1%
- pIC50 (Acetylcholinesterase [6]): 4.75
- inhibition [2]: > 50%

Compound: O=C1c2ccccc2S(=O)(=O)N1CCCCN1CCN(Cc2ccccc2)CC1
- inhibition [1]: 41.5%
- pIC50 (Acetylcholinesterase [6]): 5.52
- inhibition [2]: > 50%
- Papp at 6 h, 100 µM (in vitro): 10.6 ×10⁻⁶ cm/s

Compound: O=C1c2ccccc2C(=O)N1CCNC1CCCN(Cc2ccccc2F)C1 (stereo unspecified)
- inhibition [1]: 28.3%
- inhibition [2]: 18.9%

Compound: O=C1c2ccccc2S(=O)(=O)N1CCN1CCCC(NCc2ccccc2F)C1 (stereo unspecified)
- inhibition [1]: < 10%
- inhibition [2]: < 10%

Compound: O=C1c2ccccc2C(=O)N1CCN1CCN(CCc2ccccc2F)CC1
- inhibition [1]: 20.3%
- inhibition [2]: < 10%

Compound: O=C1c2ccccc2C(=O)N1CCNC1CCCN(Cc2ccccc2)C1 (stereo unspecified)
- inhibition [1]: 16%
- inhibition [2]: < 10%

Compound: O=C1c2ccccc2S(=O)(=O)N1CCCCCCN1CCN(Cc2ccccc2)CC1
- inhibition [1]: 41.8%
- inhibition [2]: 41.7%

Compound: O=C1c2ccccc2C(=O)N1CCN1CCN(Cc2ccccc2F)CC1
- inhibition [1]: < 10%
- inhibition [2]: 41.8%

Compound: O=C1c2ccccc2S(=O)(=O)N1CCN1CCN(CCc2ccccc2)CC1
- inhibition [1]: 18.4%
- inhibition [2]: < 10%

Compound: O=C1c2ccccc2S(=O)(=O)N1CCN1CCCN(Cc2cc(F)cc(F)c2)C1
- inhibition [1]: 16.4%
- inhibition [2]: 25.4%

Compound: O=C1c2ccccc2S(=O)(=O)N1CCCCCN1CCN(Cc2ccccc2F)CC1
- inhibition [1]: 21.9%
- pIC50 (Acetylcholinesterase [6]): 5.13
- inhibition [2]: > 50%
- Papp at 6 h, 100 µM (in vitro): 9.6 ×10⁻⁶ cm/s

Compound: O=C1c2ccccc2S(=O)(=O)N1CCN1CCCN(Cc2ccccc2F)C1
- inhibition [1]: 21.6%
- inhibition [2]: 18.4%

Compound: CCN(Cc1ccccc1)Cc1ccc(-c2cc3cc(OCCNC(=O)/C=C/c4cc(F)cc(F)c4)ccc3oc2=O)cc1
- pIC50 (Acetylcholinesterase [9]): 8.15

Compound: O=C1c2ccccc2S(=O)(=O)N1CCCCN1CCN(Cc2ccccc2F)CC1
- inhibition [1]: 29.6%
- pIC50 (Acetylcholinesterase [6]): 5.37
- inhibition [2]: > 50%
- Papp at 6 h, 100 µM (in vitro): 11 ×10⁻⁶ cm/s

Compound: O=C1c2ccccc2S(=O)(=O)N1CCN1CCN(Cc2cc(F)cc(F)c2)CC1
- inhibition [1]: 11%
- pIC50 (Acetylcholinesterase [6]): 4.72
- inhibition [2]: > 50%

Compound: O=C1c2ccccc2C(=O)N1CCN1CCCC(NCc2ccccc2F)C1 (stereo unspecified)
- inhibition [1]: < 10%
- inhibition [2]: 15.3%
